# According to patent US8815590B2, “Composition and method for differentiation of human embryonic stem cells” (Stem Cells for Safer Medicines Limited, priority 2009, dated 2014):
# Key:
# Human ESCs [SHEF3] [1] = assay: Differentiation towards definitive endoderm: immunostaining and RT-PCR of endodermal markers; assay type: cell-based; conditions: 2 μM, feeder-free on Matrigel in mTeSR1, up to 7 days
# Description: Human ESCs [SHEF3] were maintained feeder-free on Matrigel® in chemically defined mTeSR1® media and treated with 2 μM 1M for the days indicated. (A) Expression of the endodermal markers FoxA2, Sox17 and HNF4α were analysed by immunofluorescence. Treatment with compound 1M led to expression of all markers after 7 days treatment. Scale bar represents 50 μm. (B) ESCs were harvested on day 7 following treatment with 1M for the indicated days. RNA was extracted and RT-PCR analyses performed using primers selective for the genes indicated. […] (C) BIO induces differentiation towards the DE. SHEF3 ESCs were treated with 2 μM BIO for the times indicated and immunostained with antibodies towards the endodermal markers FOXA2, SOX17 and HNF4α. (D) Compound 1L also induces differentiation towards the DE. SHEF1 ESCs were treated with 2 μM 1L for the times indicated and immunostained with antibodies towards the endodermal markers FOXA2 and HNF4α.
# ESCs were cultured feeder-free on Matrigel®-coated plates in mTeSR1® media, supplemented with 2 μM compound 1M for 7 days with the media being refreshed every-other day. Definitive endoderm cultures were passaged with collagenase (1 mg/ml) and plated at a ratio of 1:10 on Matrigel® in KO DMEM supplemented with glutamine, penicillin/streptomycin, NEAA, 2% (v/v) KOSR, 10 ng/ml HGF (Peprotech) and 10 ng/ml FGF4 and cultured for a further 7 days with the media being refreshed every-other day. To allow for maturation of the HLCs, 10 ng/ml oncostatin M (Peprotech) and 10^−7 dexamethasone (SIGMA) were added to the above media and the cells were cultured for an additional 7 days with fresh media every-other day.
# (§1) Total RNA was isolated and purified using TRIzol Reagent (Invitrogen), following the manufacturer's instructions. All RNA samples were treated with DNase I (Ambion) before cDNA synthesis to eliminate any contaminating genomic DNA. RNA (1 μg) was reverse transcribed into cDNA using Oligo(dT)15 (Promega) and SuperScript II (Invitrogen). Gene-specific PCR was carried out using primers and annealing temperatures outlined in Table 2.
# ESCs were cultured on Matrigel®-coated lummox (Greiner Bio One) trays and fixed with 4% paraformaldehyde (PFA) for 20 minutes at room temperature. Cells were permeabilised in PBST (with 0.1% Triton X-100) and blocked in 10% blocking reagent (Roche) before incubating with primary antibodies in 2% blocking reagent overnight at 4° C. After washing in PBS, cells were incubated with FITC-conjugated secondary antibodies (Vector Labs) for 3 hours at room temperature. After further washing, the cells were stained with 4,6-diamidino-2-phenylindole (DAPI) (SIGMA), washed again and mounted in MOWIOL. […]
# Human ESCs [SHEF3] [2] = assay: Flow cytometry of pluripotency surface markers Tra-1-60 and SSEA4 in treated human ESCs; assay type: cell-based
# Description: (A) Images show typical colonies formed following the indicated treatments. The scale bars represent 1 mm. (B) Histogram plots of ESCs analysed by flow cytometry following immunostaining with antibodies against the pluripotency markers Tra-1-60 or SSEA4. (C) RNA was extracted from the cells and RT-PCR analyses performed using primers specific to the pluripotency genes OCT4 and NANOG and to the house-keeping gene β-ACTIN. (D) Western blot analysis was performed on protein extracted from the cells and immunoblotted with antibodies specific to Oct4. Blots were stripped and reprobed with anti-Gapdh antibodies to assess equal loading. […] SHEF3 cells were treated with the indicated concentration of 1O for 7 days. Images show typical colony morphology. (F) Histogram plots of ESCs analysed by flow cytometry following staining with Tra-1-60 and SSEA4 antibodies. Analysis of percent positive cells and mean fluorescent intensity are indicated on the plots. (G) RT PCR analysis for the expression of OCT4 and NANOG. Bands for each of the genes were from the same gel with intervening samples removed. (H) Western blot analysis of OCT4 protein expression. Proteins bands were from the same immunoblot with intervening samples removed.
# (§2) SHEF1 and SHEF3 human ESCs were obtained from the UKSCB and cultured as outlined in their protocols. Briefly, ESCs were maintained on mitomycin C-inactivated mouse embryonic fibroblast (MEF) feeder layers in KnockOut Dulbecco's modified Eagle's medium (KO DMEM) (Invitrogen) supplemented with 20% (vol/vol) KO serum replacement (KOSR; Invitrogen), 1 mM non-essential amino acids (NEAA; Invitrogen), 1 mM glutamine (Invitrogen), 0.1 mM 2-mercaptoethanol (BioRad), penicillin/streptomycin, and 4 ng/ml recombinant human FGF2 (Peprotech). Cultures were passage using 1 mg/ml collagenase at a ratio of 1:8 to 1:12 every 7 days. Cultures were transferred to a feeder-free, chemically defined culture system on ESC-qualified Matrigel® (BD) coated plates in mTeSR1® (Stem Cell Technologies) media according to Stem Cell Technologies' protocol.
# ESCs were trypsinised (0.05% Trypsin-EDTA) for 10 minutes at 37° C. and resuspended in PBS containing 2% (v/v) FBS (FBS/PBS). […] Cells were washed and stained with secondary fluorescein isothiocyanate (FITC)-conjugated antibodies (SIGMA) for a further 30 minutes, if required. Flow cytometry was performed using a FACSCanto cytometer (Becton Dickenson) and the data were analysed with FACSDiva software. Dead cells were excluded for analyses based on forward and side scatter parameters.
# Human ESCs [SHEF3] [3] = assay: Colony morphology, RT-PCR and Western blot of OCT4/NANOG in treated human ESCs; assay type: cell-based
# Description: Human ESCs [SHEF3] were treated with the indicated concentrations of BIO or compound 1M or left untreated as a control and cultured for 7 days. (A) Images show typical colonies formed following the indicated treatments. The scale bars represent 1 mm. (B) Histogram plots of ESCs analysed by flow cytometry following immunostaining with antibodies against the pluripotency markers Tra-1-60 or SSEA4. (C) RNA was extracted from the cells and RT-PCR analyses performed using primers specific to the pluripotency genes OCT4 and NANOG and to the house-keeping gene β-ACTIN. (D) Western blot analysis was performed on protein extracted from the cells and immunoblotted with antibodies specific to Oct4. Blots were stripped and reprobed with anti-Gapdh antibodies to assess equal loading. (E) Compound 1O also induces differentiation of human ESCs. SHEF3 cells were treated with the indicated concentration of 1O for 7 days. Images show typical colony morphology. (F) Histogram plots of ESCs analysed by flow cytometry following staining with Tra-1-60 and SSEA4 antibodies. Analysis of percent positive cells and mean fluorescent intensity are indicated on the plots. (G) RT PCR analysis for the expression of OCT4 and NANOG. Bands for each of the genes were from the same gel with intervening samples removed. (H) Western blot analysis of OCT4 protein expression. Proteins bands were from the same immunoblot with intervening samples removed.
# as §2, §1
# Cell lysates (20 μg) were prepared, separated by SDS-PAGE and transferred to nitrocellulose as described previously (Welham et al., 1994). Immunoblotting was carried out using primary antibodies at the following dilutions: 1:5,000 anti-Oct4 (Santa Cruz Biotechnology; sc-9081); 1:2000 anti-GAPDH (sc-20357); 1:10,000 anti-phospho (Ser33/37/Thr41) β-catenin (Cell signalling Technology; CST 9561); 1:1000 anti-β-catenin (CST 9562). Anti-rabbit antibodies conjugated to horseradish peroxidise (DAKO) were used at 1:10,000 and blots were developed using ECL Advance (GE Healthcare) or ChemiGlow (Alpha Innotech) according to manufacturer's directions. Images were captured and analysed using the ImageQuant RT ECL system (GE Healthcare). Blots were stripped and reprobed as described previously (Welham et al., 1994).
# ESCs [SHEF1] [4] = assay: RT-PCR of Activin/Nodal pathway and differentiation marker genes; assay type: cell-based, human; conditions: 10 μM with 2 μM 1M
# Description: (§3) (A) RNA was extracted from ESCs [SHEF1] cultured for 7 days in the presence of 2 μM 1M for the days indicated. RT-PCR analyses were performed using primers selective for the genes indicated. (B) ESCs [SHEF1] were treated with 2 μM 1M alone or in combination with 10 μM SB43125 (S) for the days indicated and RT-PCR performed on the extracted RNA. (C) ESCs [SHEF3] were treated with 1M alone or in combination with 100 ng/ml Activin A (A) for the days indicated and RT-PCR performed. (D). ESCs [SHEF1] were treated with 2 μM 1M, or 100 ng/ml ActivinA (A) alone or in combination with 1M for 5 days. Expression of the endoderm markers FoxA2 and HNF4α was analysed by immunofluorescence. The number of percent positive cells averaged from 3 fields of view +/−SD are indicated. Scale bar represents 50 μm. (E) ESCs [SHEF1] were treated with 2 μM 1M, or 100 ng/ml ActivinA (A) alone or in combination with 1M for 5 days. Expression of the DE marker CXCR4 was alaysed by flow cytometry.
# as §1
# ESCs [SHEF1] [5] = assay: Immunofluorescence of endoderm markers FoxA2 and HNF4α, percent positive cells; assay type: cell-based, human; conditions: 5 days
# Description: as §3
# ESCs were cultured on Matrigel®-coated lummox (Greiner Bio One) trays and fixed with 4% paraformaldehyde (PFA) for 20 minutes at room temperature. Cells were permeabilised in PBST (with 0.1% Triton X-100) and blocked in 10% blocking reagent (Roche) before incubating with primary antibodies in 2% blocking reagent overnight at 4° C. After washing in PBS, cells were incubated with FITC-conjugated secondary antibodies (Vector Labs) for 3 hours at room temperature. After further washing, the cells were stained with 4,6-diamidino-2-phenylindole (DAPI) (SIGMA), washed again and mounted in MOWIOL. The following antibodies and dilutions were used: goat-anti-FoxA2 (1:100, R&D. Systems), mouse anti-Sox17 (1:50, R&D Systems), rabbit anti-HNF4α (1:100, Santa Cruz), rabbit anti-AFP (1:100, DAKO), rabbit anti-TTR (1:100, DAKO). Images were captured on a Zeiss 510 Meta confocal microscope using a 40× objective.
# ESCs [SHEF1] [6] = assay: Flow cytometry of the DE marker CXCR4; assay type: cell-based, human; conditions: 2 μM 1M, 100 ng/ml Activin A, alone or in combination, 5 days
# Description: as §3
# ESCs were trypsinised (0.05% Trypsin-EDTA) for 10 minutes at 37° C. and resuspended in PBS containing 2% (v/v) FBS (FBS/PBS). […] Flow cytometry was performed using a FACSCanto cytometer (Becton Dickenson) and the data were analysed with FACSDiva software. […]
# ESCs = assay: RT-PCR of Activin/Nodal pathway and differentiation marker genes; assay type: cell-based, human; conditions: 100 ng/ml Activin A with 1M, 7 days, SHEF3
# Description: as §3, §1
# [7] = MEF culture, concentration 0.5, 7 days
# [8] = MEF culture, concentration 2, 7 days
# [9] = mTeSR1, concentration 0.5, 7 days
# [10] = mTeSR1, concentration 2, 7 days
# [11] = 100 ng/ml Activin A with 2 μM 1M
molecule,measurement,setting,value
O=C1NC(=O)C2=C1c1cn(c3ccccc13)CCOCCOCCOCCn1cc2c2ccccc21 [1L],"Differentiation towards the DE (immunostaining FOXA2, SOX17, HNF4α)",Human ESCs [SHEF3] [1],induced differentiation towards the DE
"O=C1Nc2cc(Br)ccc2/C1=C1/Nc2ccccc2/C1=N\O [BIO, reference compound]",Tra1-60 % pos,"Human ESCs [SHEF3] [2]; MEF culture, concentration 0.5 (unit not given), 7 days",82.2%
same,SSEA4 % pos,Human ESCs [SHEF3] [2]; [7],91.3%
same,SSEA4 mean (mean fluorescence intensity),Human ESCs [SHEF3] [2]; [7],6002
same,Tra1-60 mean (mean fluorescence intensity),Human ESCs [SHEF3] [2]; [7],9497
same,Tra1-60 % pos,"Human ESCs [SHEF3] [2]; MEF culture, concentration 2 (unit not given), 7 days",75.1%
same,SSEA4 % pos,Human ESCs [SHEF3] [2]; [8],83.3%
same,SSEA4 mean (mean fluorescence intensity),Human ESCs [SHEF3] [2]; [8],4006
same,Tra1-60 mean (mean fluorescence intensity),Human ESCs [SHEF3] [2]; [8],7441
same,Tra1-60 % pos,"Human ESCs [SHEF3] [2]; mTeSR1 (feeder-free, Matrigel), concentration 0.5, 7 days",73.7%
same,Tra1-60 % pos,"Human ESCs [SHEF3] [2]; mTeSR1 (feeder-free, Matrigel), concentration 2, 7 days",40.5%
same,SSEA4 % pos,Human ESCs [SHEF3] [2]; [9],69.2%
same,SSEA4 mean (mean fluorescence intensity),Human ESCs [SHEF3] [2]; [9],5871
same,Tra1-60 mean (mean fluorescence intensity),Human ESCs [SHEF3] [2]; [9],8194
same,SSEA4 % pos,Human ESCs [SHEF3] [2]; [10],72.5%
same,SSEA4 mean (mean fluorescence intensity),Human ESCs [SHEF3] [2]; [10],1410
same,Tra1-60 mean (mean fluorescence intensity),Human ESCs [SHEF3] [2]; [10],890
same,"Differentiation towards the DE (immunostaining FOXA2, SOX17, HNF4α)",Human ESCs [SHEF3] [1],induced differentiation towards the DE
O=C1NC(=O)C2=C1c1cn(c3ccccc13)CCCCC(O)CCCCn1cc2c2ccccc21 [1O],Expression of pluripotency markers Tra-1-60 and SSEA4 by flow cytometry (in words),Human ESCs [SHEF3] [2]; 7 days treatment,decreased expression of Tra-1-60 and SSEA4
same,OCT4 and NANOG gene expression (RT-PCR),Human ESCs [SHEF3] [3]; 7 days treatment,loss of OCT4 and NANOG gene expression
same,Oct4 protein expression (Western blot),Human ESCs [SHEF3] [3]; 7 days treatment,loss of OCT4 protein expression
same,Proliferation and differentiation of human ESCs (colony morphology),"Human ESCs [SHEF3] [3]; 7 days, on MEFs in KO DMEM or on Matrigel in mTeSR1, 1M at 2 μM",induced similar differentiation
"NC(=O)c1ccc(-c2nc(-c3ccccn3)c(-c3ccc4c(c3)OCO4)[nH]2)cc1 [SB43125, reference compound]",Effect on 1M-induced GSC and FOXA2 expression,ESCs [SHEF1] [4],dramatically reduced
same,Inhibition of 1M-induced NODAL expression,ESCs [SHEF1] [4],only partially inhibited
"Activin A: member of the TGFβ superfamily which binds to the same receptors as Nodal, used to mimic Nodal activity in vitro (protein, UniProt P08476 311-426, looked up, Inhibin beta A chain homodimer) Inhibin beta A chain: GLECDGKVNICCKKQFFVSFKDIGWNDWIIAPSGYHANYCEGECPSHIAGTSGSSLSFHSTVINHYRMRGHSPFANLKSCCVPTKLRPMSMLYYDDGQNIIKKDIQNMIVEECGCS",Effect of Activin A on generation of 1M-induced HNF4α expressing cells,ESCs [SHEF1] [5]; [11],inhibit generation of 1M-induced HNF4α expressing cells
same,Effect of addition of Activin A on 1M-induced FoxA2 expression,ESCs [SHEF1] [5]; [11],did not further enhance
same,FOXA2 expressing cells in the entire population,ESCs [SHEF1] [5]; 2 μM 1M or 100 ng/ml Activin A,8%
same,HNF4α-expressing cells,ESCs [SHEF1] [5]; 2 μM 1M or 100 ng/ml Activin A,3%
same,CXCR4 expression by flow cytometry,ESCs [SHEF1] [6],26.5%
same,1M-induced expression of AFP in the presence of Activin A,ESCs,lost
